Data on seven compounds can be found in article PMC12222954 (Nature Communications, 2025).

Data set [1] addresses T1, P-gp (Homo sapiens, UniProt P08183). Put plainly: Efflux of Rh123 from preloaded Caco-2 cells. The conditions noted are these: Rh123-preloaded Caco-2 cells, vs control. The data set is classed as cell-based.
The format of data set [2] is in vivo. The conditions noted are these: SD rats; for effect on the intestinal absorption of capecitabine: COS 250 mg/kg.
Another data set concerns the target P-gp-mediated ATPase (Homo sapiens, UniProt P08183). In words: P-gp-mediated ATPase activity in Caco-2 cells. Format: cell-based. Conditions: 10 μM GlcN.
A short description of data set [3]: Intestinal transport rate, everted intestinal sac model. Format: in vitro ADME, SD rats. Conditions: pre-incubation 40 min.
Data set [4] is described as follows: Pharmacokinetics of digoxin in abcb1. Format: in vivo. The conditions noted are these: abcb1(-/-) mice.
Data set [5] has as its system paraquat poisoning. Put plainly: Survival of paraquat-poisoned FVB mice. Format: in vivo, wt FVB mice. The conditions noted are these: PQ-intoxicated FVB mice.
The target in data set [6] is T1, P-gp. The data set is classed as biochemical. The conditions noted are these: GlcN 10 mM, 5 min pre-incubation.
In data set [7] the target is T1, P-gp. In words: Cellular uptake of Rh123 in P-gp silenced. Conditions: P-gp knockdown Caco-2 cells, various concentrations. The data set is classed as cell-based.
In data set [8] the test system is Caco-2 cells. Format: cell-based.
The target of data set [9] is T1, P-gp. In words: Transport of paraquat in P-gp recombinant inside-out vesicle model. Format: biochemical. The conditions noted are these: P-gp inside-out vesicles.
Data set [10] concerns Caco-2 cells. Put plainly: Cell viability, Cell Counting Kit-8. Format: cell-based. The conditions noted are these: 48 h.
Data set [11] is classed as in vivo, SD rats. The conditions noted are these: Sprague-Dawley, rat, oral.
Data set [12] is classed as in vivo. Conditions: FVB mice, GlcN 500 mg/kg.
Data set [13] concerns tight junctions between intestinal epithelial cells. In words: TEM observation of tight junctions after oral GlcN. The data set is classed as in vivo, SD rats. The conditions noted are these: GlcN 250 mg/kg, 20 min.
Data set [14] is described as follows: Pharmacokinetics of digoxin in wild-type FVB mice with or without GlcN. Format: in vivo.
Data set [15] relates to paraquat poisoning. The data set is classed as in vivo, SD rats. The conditions noted are these: for survival rate: PQ-intoxicated rats, oral 2 h post-intoxication, over 15 days.
The next data set relates to A549 cells. The data set is classed as cell-based.
Data set [16] is described as follows: Molar osmotic pressure of solution after adding GlcN or Glu. Format: physicochemical. The conditions noted are these: GlcN concentrations below 20 mM.
Data set [17] is classed as in vivo. Conditions: abcb1(-/-) mice, GlcN 500 mg/kg.
Another data set concerns the target CYP3A4 (Homo sapiens, UniProt P08684). Conditions: 30 min incubation, 100 μM GlcN.
In data set [18] the test system is paraquat poisoning. In words: Survival of paraquat-poisoned abcb1. The data set is classed as in vivo. Conditions: PQ-intoxicated abcb1(-/-) mice, 15 days.
Data set [19] concerns the target T1, P-gp. In words: SPR affinity to P-gp in SMALP-MCF-7/ADR liposomes. Format: binding.

T1 sequence (P08183 whole entry): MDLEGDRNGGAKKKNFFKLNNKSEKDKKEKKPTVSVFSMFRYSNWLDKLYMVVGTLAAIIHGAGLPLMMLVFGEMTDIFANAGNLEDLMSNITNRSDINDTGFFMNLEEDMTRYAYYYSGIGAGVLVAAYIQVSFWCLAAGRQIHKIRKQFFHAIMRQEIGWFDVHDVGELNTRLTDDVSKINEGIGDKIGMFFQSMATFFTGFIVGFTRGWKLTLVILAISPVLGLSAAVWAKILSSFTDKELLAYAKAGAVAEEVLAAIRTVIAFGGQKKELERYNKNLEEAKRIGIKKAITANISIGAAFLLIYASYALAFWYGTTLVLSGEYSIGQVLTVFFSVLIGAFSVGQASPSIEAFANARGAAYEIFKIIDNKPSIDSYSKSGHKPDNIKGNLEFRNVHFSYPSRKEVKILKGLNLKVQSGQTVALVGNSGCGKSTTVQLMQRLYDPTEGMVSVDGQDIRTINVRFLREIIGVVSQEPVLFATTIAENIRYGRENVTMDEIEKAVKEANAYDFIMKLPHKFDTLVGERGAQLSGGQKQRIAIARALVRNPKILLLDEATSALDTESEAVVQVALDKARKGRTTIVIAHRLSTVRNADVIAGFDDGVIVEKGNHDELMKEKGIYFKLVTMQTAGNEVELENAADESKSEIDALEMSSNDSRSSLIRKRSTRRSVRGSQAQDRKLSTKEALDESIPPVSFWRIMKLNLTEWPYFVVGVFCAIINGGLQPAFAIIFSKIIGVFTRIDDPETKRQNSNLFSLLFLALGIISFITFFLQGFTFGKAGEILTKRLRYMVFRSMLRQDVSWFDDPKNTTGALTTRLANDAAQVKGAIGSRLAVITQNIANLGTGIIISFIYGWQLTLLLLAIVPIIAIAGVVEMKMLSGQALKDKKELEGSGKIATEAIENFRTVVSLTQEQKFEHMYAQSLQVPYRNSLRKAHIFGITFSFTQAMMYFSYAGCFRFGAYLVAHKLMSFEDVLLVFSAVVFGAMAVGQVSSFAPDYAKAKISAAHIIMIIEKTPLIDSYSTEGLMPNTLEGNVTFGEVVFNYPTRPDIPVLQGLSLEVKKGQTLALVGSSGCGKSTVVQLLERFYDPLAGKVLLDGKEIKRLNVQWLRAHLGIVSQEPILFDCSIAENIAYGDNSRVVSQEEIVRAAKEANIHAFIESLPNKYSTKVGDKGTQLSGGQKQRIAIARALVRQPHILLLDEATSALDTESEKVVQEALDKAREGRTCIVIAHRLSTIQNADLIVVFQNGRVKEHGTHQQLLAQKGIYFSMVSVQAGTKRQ
Sequence of P-gp-mediated ATPase (P08183 whole entry): as above
Sequence of CYP3A4 (P08684 whole entry): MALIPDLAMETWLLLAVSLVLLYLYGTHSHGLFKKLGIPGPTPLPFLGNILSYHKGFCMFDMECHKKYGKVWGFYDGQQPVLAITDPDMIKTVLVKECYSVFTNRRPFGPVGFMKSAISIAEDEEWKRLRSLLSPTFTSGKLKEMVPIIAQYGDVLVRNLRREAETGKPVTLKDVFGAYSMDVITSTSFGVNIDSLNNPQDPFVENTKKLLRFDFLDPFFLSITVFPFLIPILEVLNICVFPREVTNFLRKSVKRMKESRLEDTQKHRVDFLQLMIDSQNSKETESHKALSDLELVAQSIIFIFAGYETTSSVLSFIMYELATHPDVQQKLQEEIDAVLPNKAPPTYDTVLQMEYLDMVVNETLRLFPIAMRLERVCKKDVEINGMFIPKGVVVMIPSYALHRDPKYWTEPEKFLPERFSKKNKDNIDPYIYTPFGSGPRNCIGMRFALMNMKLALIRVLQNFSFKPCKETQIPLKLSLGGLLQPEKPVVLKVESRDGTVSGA

Take `OC[C@H]1OC(O)[C@H](O)[C@@H](O)[C@@H]1O` (some centres unmarked) [glucose, reference compound]: the “effect on fluorescence intensity of intracellular Rh123 / Rh123 transport” value at P-gp [1] was “no discernible effect”.
`N[C@H]1[C@H](O[C@H]2[C@H](O)[C@@H](N)C(O)O[C@@H]2CO)O[C@H](CO)[C@@H](O)[C@@H]1O` (some centres unmarked) [COS2, chitobiose]: the “effect on the intestinal absorption of capecitabine” value (from here on “effect on the intestinal absorption”) in [2] is reported as “inhibited”.
As to `N[C@H]1C(O)O[C@H](CO)[C@@H](O)[C@@H]1O` (some centres unmarked) [GlcN, Glucosamine], on P-gp-mediated ATPase, the “ATPase activity compared to baseline at peak effect” value is given as “doubled”. Also, the “inhibitory effect on intestinal drug transport after prolonged pre-incubation” value in data set [3] was “reverses the inhibitory effect”. In data set [4], the “effect on in vivo pharmacokinetic behavior of digoxin” value is “does not affect”. For the same compound, the “effect on survival rate” value in the data set with paraquat poisoning [5] is recorded as “improves the survival rate”. In addition, the “transport activity relative to the control group” value at P-gp [6] is listed as ~ 1.48 times. Moreover, the “effect on intracellular accumulation level of Rh123” value on P-gp [7] is listed as “hardly had any effect”. Besides, the “effect on resistance to paraquat (cell viability)” value in the data set with Caco-2 cells [8] and in the data set on A549 cells was “significantly enhanced the resistance” each time. Besides, the “effect on fluorescence intensity of intracellular Rh123 / Rh123 transport” value at P-gp [1] is listed as “notably reduced”. For the same compound, on P-gp [9], the “effect on paraquat transport” value was “enhanced its transport”. For the same compound, in the data set on Caco-2 cells [10], the “concentrations that did not induce significant cytotoxicity” value is on record as “below 50 mM”. Besides, the “reduction of PQ peak plasma concentration and bioavailability” value in [11] is ~ 60%. Further, the “effect on PQ absorption” value in data set [12] was “significantly reduced”. The “tight junctions between intestinal epithelial cells before and after oral GlcN” value in [13] is reported as “remained unchanged”. In addition, the “effect on oral absorption of digoxin” value in data set [14] is listed as “significantly inhibited”. In addition, the survival rate with paraquat poisoning [15] was 60%. Also, the ΔOsmolality entry in data set [16] is given as “below 20 mOsmol/kg”. Also, in data set [17], the “effect on PQ pharmacokinetics” value is “no substantial effect”. Besides, the “boost of CYP3A4 enzyme activity compared to the control group” value at CYP3A4 was 301%. Besides, the effect on survival entry in the data set with paraquat poisoning [18] was “fails to significantly rescue”.
For the compound `C[n+]1ccc(-c2cc[n+](C)cc2)cc1` [PQ, N,N’-dimethyl-4,4’-bipyridinium], in the data set with paraquat poisoning [15] (paraquat 350 mg/kg oral, SD rats), the “time within which all poisoned rats without administration died” value is on record as at most 6 days.
Consider `N[C@H]1[C@H](O[C@H]2[C@H](O)[C@@H](N)[C@H](O[C@H]3[C@H](O)[C@@H](N)[C@H](O[C@H]4[C@H](O)[C@@H](N)[C@H](O[C@H]5[C@H](O)[C@@H](N)C(O)O[C@@H]5CO)O[C@@H]4CO)O[C@@H]3CO)O[C@@H]2CO)O[C@H](CO)[C@@H](O)[C@@H]1O` (some centres unmarked) [COS5, chitopentaose], for which the “effect on the intestinal absorption” value in data set [2] is “facilitated”.
As for `N[C@H]1[C@H](O[C@H]2[C@H](O)[C@@H](N)[C@H](O[C@H]3[C@H](O)[C@@H](N)C(O)O[C@@H]3CO)O[C@@H]2CO)O[C@H](CO)[C@@H](O)[C@@H]1O` (some centres unmarked) [COS3, chitotriose], on P-gp [19], the Kd worked out at 276 µM. In data set [2], the “AUC of capecitabine, of the control group” value was found to be 12.65% and the “effect on the intestinal absorption” value was “inhibited”.
Compound `C[C@@H]1C[C@H]2[C@@H]3CCC4=CC(=O)C=C[C@]4(C)[C@@]3(F)[C@@H](O)C[C@]2(C)[C@@]1(O)C(=O)CO` [DEX, dexamethasone, reference compound] returned a survival rate in the data set with paraquat poisoning [15] of 30%. Further, in the data set with paraquat poisoning [18], the effect on survival entry is given as “does not improve the survival rate within 15 days”.
